Experimental findings from article PMC7144934, “Design, Synthesis and Biological Evaluation of Phenyl Urea Derivatives as IDO1 Inhibitors” (Molecules, 2020) are described below.

Bounds are passed on as bounds.

For experiment [1], the target named is T1, Recombinant human IDO1 (rhIDO1) (Homo sapiens, UniProt P14902).
T1 construct: made in house
In words: Enzyme assay for IDO1 inhibition. The experiment is classed as biochemical. To be noted: rhIDO1 enzyme assay; for IC50: 37 °C, 45 min.

Experiment [2] deals with T2, Recombinant human TDO (rhTDO) (Homo sapiens, UniProt P48775).
T2 construct: made in house
In words: Enzyme assay for TDO inhibition. The experiment is classed as biochemical. As to conditions: 37 °C, 45 min. As for the experimental part:
Recombinant human IDO1 and TDO were expressed and purified according to the reported procedures. The assay was performed according to the literature: A standard reaction mixture (100 µL) containing 100 mM potassium phosphate buffer (pH 6.5), 40 mM ascorbic acid (neutralized with NaOH), 200 µg/mL catalase, 20 µM methylene blue and 0.05 µM rhIDO1 or rhTDO was added to the solution containing the substrate L-tryptophan and the test sample at a determined concentration. The reaction was carried out at 37 °C for 45 min and stopped by adding 20 µL of 30% (w/v) trichloroacetic acid. After heating at 65 °C for 15 min, 100 µL of 2% (w/v) p-dimethylaminobenzaldehyde in acetic acid was added to each well. The yellow pigment derived from kynurenine was measured at 492 nm using a SYNERGY-H1 microplate reader (Biotek Instruments, Inc., Winooski, VT, USA). IC50 was analyzed using the GraphPad Prism 8.0 software (GraphPad Software, San Diego, CA, USA).

T2 sequence (P48775 whole entry): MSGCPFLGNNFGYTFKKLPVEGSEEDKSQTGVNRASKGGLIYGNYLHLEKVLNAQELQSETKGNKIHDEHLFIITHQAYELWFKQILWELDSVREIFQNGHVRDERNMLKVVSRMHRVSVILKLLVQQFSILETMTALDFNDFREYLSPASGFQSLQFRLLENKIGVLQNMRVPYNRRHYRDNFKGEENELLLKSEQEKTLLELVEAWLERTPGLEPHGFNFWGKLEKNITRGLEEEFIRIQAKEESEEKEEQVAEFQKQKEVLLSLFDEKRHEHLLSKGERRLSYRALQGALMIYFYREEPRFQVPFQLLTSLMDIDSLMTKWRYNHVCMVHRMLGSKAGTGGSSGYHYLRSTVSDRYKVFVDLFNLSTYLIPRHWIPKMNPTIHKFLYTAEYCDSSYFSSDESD
T1 sequence (P14902 whole entry): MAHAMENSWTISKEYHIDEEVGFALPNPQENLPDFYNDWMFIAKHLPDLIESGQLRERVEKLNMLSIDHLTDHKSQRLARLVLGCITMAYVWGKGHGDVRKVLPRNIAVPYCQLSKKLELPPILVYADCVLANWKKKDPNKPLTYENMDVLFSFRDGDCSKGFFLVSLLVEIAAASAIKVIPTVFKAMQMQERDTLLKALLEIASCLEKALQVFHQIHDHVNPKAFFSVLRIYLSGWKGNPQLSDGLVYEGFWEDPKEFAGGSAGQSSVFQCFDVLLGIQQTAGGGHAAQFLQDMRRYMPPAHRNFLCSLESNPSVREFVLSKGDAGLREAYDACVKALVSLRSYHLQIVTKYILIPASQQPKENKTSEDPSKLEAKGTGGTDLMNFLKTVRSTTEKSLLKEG

As to `CCOC(=O)CC(c1ccc(N2CC(C)CC(C)C2)c(NC(=O)Nc2ccccc2)c1)C(F)(F)F` (stereo not shown) [g1, 3-[4-(3,5-dimethylpiperidin-1-yl)-3-(3-phenylureido)-phenyl]-4,4,4-trifluorobutyric Acid Ethyl Ester], the 50% inhibitory concentration (IC50) in experiment [1] and in experiment [2] was greater than 100 µM throughout.
With `CCOC(=O)CC(c1ccc(N2CC(C)CC(C)C2)c(NC(=O)Nc2ccc(C)cc2)c1)C(F)(F)F` (stereo not shown) [g2, 3-[4-(3,5-dimethylpiperidin-1-yl)-3-(3-p-tolylureido)phenyl]-4,4,4-trifluorobutyric Acid Ethyl Ester], the 50% inhibitory concentration (IC50) in experiment [1] and in experiment [2] was greater than 100 µM in each case.
Take `CCOC(=O)CC(c1ccc(N2CC(C)CC(C)C2)c(NC(=O)Nc2ccc(Cl)cc2)c1)C(F)(F)F` (stereo not shown) [g3, 3-[3-[3-(4-chlorophenyl)-ureido]-4-(3,5-dimethylpiperidin-1-yl)-phenyl]-4,4,4-trifluorobutyric Acid Ethyl Ester]: the IC50 in experiment [1] and in experiment [2] was greater than 100 µM throughout.
As for `Cc1ccc(NC(=O)Nc2cc(C(CC(=O)O)C(F)(F)F)ccc2N2CC(C)CC(C)C2)cc1` (stereo not shown) [i2, 3-[4-(3,5-dimethylpiperidin-1-yl)-3-(3-p-tolylureido)phenyl]-4,4,4-trifluorobutyric Acid], in experiment [1], the “IDO1 inhibitory activity (in words)” value was “more potent IDO1 inhibitory activity than the unsubstituted i1” and the half-maximal inhibitory concentration (IC50) came to 8.61 µM. Also, in experiment [2], the concentration for half-maximal inhibition (IC50) is greater than 100 µM.
For `CC1CC(C)CN(c2ccc(C(CC(=O)O)C(F)(F)F)cc2NC(=O)Nc2ccc(Cl)cc2)C1` (stereo not shown) [i3, 3-[3-[3-(4-chlorophenyl)ureido]-4-(3,5-dimethylpiperidin-1-yl)-phenyl]-4,4,4-trifluorobutyric Acid] the same measures were “more potent IDO1 inhibitory activity than the unsubstituted i1”, 5.69 µM and greater than 100 µM.
For `CC1CC(C)CN(c2ccc(C(CC(=O)O)C(F)(F)F)cc2NC(=O)NC2CCCCC2)C1` (stereo not shown) [i4, 3-[3-(3-cyclohexylureido)-4-(3,5-dimethylpiperidin-1-yl)phenyl]-4,4,4-trifluorobutyric Acid] the same measures were “loss of inhibition”, greater than 100 µM and greater than 100 µM.
For `CCCCNC(=O)Nc1cc(C(CC(=O)O)C(F)(F)F)ccc1N1CC(C)CC(C)C1` (stereo not shown) [i5, 3-[3-(3-butylureido)-4-(3,5-dimethylpiperidin-1-yl)-phenyl]-4,4,4-trifluorobutyric Acid] the same measures were “loss of inhibition”, greater than 100 µM and greater than 100 µM.
Consider `Cc1ccccc1NC(=O)Nc1cc(C(CC(=O)O)C(F)(F)F)ccc1N1CC(C)CC(C)C1` (stereo not shown) [i6, 3-[4-(3,5-dimethylpiperidin-1-yl)-3-(3-o-tolylureido)phenyl]-4,4,4-trifluorobutyric Acid], for which, in experiment [1], the “IDO1 inhibitory activity (in words)” value was “lost all IDO1 inhibitory activity” and the concentration for half-maximal inhibition (IC50) is greater than 100 µM. Further, in experiment [2], the IC50 is greater than 100 µM.
Take `Cc1cccc(NC(=O)Nc2cc(C(CC(=O)O)C(F)(F)F)ccc2N2CC(C)CC(C)C2)c1` (stereo not shown) [i7, 3-[4-(3,5-dimethylpiperidin-1-yl)-3-(3-m-tolylureido)phenyl]-4,4,4-trifluorobutyric Acid]: in experiment [1], the “IDO1 inhibitory activity (in words)” value was “lost all IDO1 inhibitory activity” and the IC50 was greater than 100 µM. The half-inhibitory concentration (IC50) in experiment [2] is greater than 100 µM.
`CC1CC(C)CN(c2ccc(C(CC(=O)O)C(F)(F)F)cc2NC(=O)Nc2ccccc2Cl)C1` (stereo not shown) [i8, 3-[3-[3-(2-chlorophenyl)ureido]-4-(3,5-dimethylpiperidin-1-yl)-phenyl]-4,4,4-trifluorobutyric Acid]: in experiment [1], the “IDO1 inhibitory activity (in words)” value was “lost all IDO1 inhibitory activity” and the half-inhibitory concentration (IC50) is greater than 100 µM. In experiment [2], the half-inhibitory concentration (IC50) was greater than 100 µM.
In the case of `CC1CC(C)CN(c2ccc(C(CC(=O)O)C(F)(F)F)cc2NC(=O)Nc2cccc(Cl)c2)C1` (stereo not shown) [i9, 3-[3-[3-(3-chlorophenyl)ureido]-4-(3,5-dimethylpiperidin-1-yl)-phenyl]-4,4,4-trifluorobutyric Acid], in experiment [1], the “IDO1 inhibitory activity (in words)” value is “lost all IDO1 inhibitory activity” and the IC50 was greater than 100 µM. Besides, the IC50 in experiment [2] was greater than 100 µM.
Consider `CC1CC(C)CN(c2ccc(C(CC(=O)O)C(F)(F)F)cc2NC(=O)Nc2ccccc2C#N)C1` (stereo not shown) [i10, 3-[3-[3-(2-cyanophenyl)ureido]-4-(3,5-dimethylpiperidin-1-yl)-phenyl]-4,4,4-trifluorobutyric Acid], for which, in experiment [1], the “IDO1 inhibitory activity (in words)” value is on record as “lost all IDO1 inhibitory activity” and the IC50 was greater than 100 µM. The 50% inhibitory concentration (IC50) in experiment [2] was greater than 100 µM.
In the case of `CC1CC(C)CN(c2ccc(C(CC(=O)O)C(F)(F)F)cc2NC(=O)Nc2cccc(C#N)c2)C1` (stereo not shown) [i11, 3-[3-[3-(3-cyanophenyl)ureido]-4-(3,5-dimethylpiperidin-1-yl)-phenyl]-4,4,4-trifluorobutyric Acid], in experiment [1], the “IDO1 inhibitory activity (in words)” value is listed as “lost all IDO1 inhibitory activity”. The concentration for half-maximal inhibition (IC50) in experiment [1] and in experiment [2] was greater than 100 µM in each case.
As to `COc1ccccc1NC(=O)Nc1cc(C(CC(=O)O)C(F)(F)F)ccc1N1CC(C)CC(C)C1` (stereo not shown) [i13, 3-{4-(3,5-dimethylpiperidin-1-yl)-3-[3-(2-methoxyphenyl)ureido]-phenyl}-4,4,4-trifluorobutyric Acid], the “IDO1 inhibitory activity (in words)” value in experiment [1] was “lost all IDO1 inhibitory activity”. The half-maximal inhibitory concentration (IC50) in experiment [1] and in experiment [2] was greater than 100 µM each time.
Turning to `COc1cccc(NC(=O)Nc2cc(C(CC(=O)O)C(F)(F)F)ccc2N2CC(C)CC(C)C2)c1` (stereo not shown) [i14, 3-{4-(3,5-dimethylpiperidin-1-yl)-3-[3-(3-methoxyphenyl)ureido]-phenyl}-4,4,4-trifluorobutyric Acid], in experiment [1], the “IDO1 inhibitory activity (in words)” value is reported as “lost all IDO1 inhibitory activity” and the IC50 is greater than 100 µM. Moreover, the 50% inhibitory concentration (IC50) in experiment [2] was greater than 100 µM.
As for `COc1ccc(NC(=O)Nc2cc(C(CC(=O)O)C(F)(F)F)ccc2N2CC(C)CC(C)C2)cc1` (stereo not shown) [i15, 3-{4-(3,5-dimethylpiperidin-1-yl)-3-[3-(4-methoxyphenyl)ureido]-phenyl}-4,4,4-trifluorobutyric Acid], in experiment [1], the “IDO1 inhibitory activity (in words)” value is “more potent IDO1 inhibitory activity than the unsubstituted i1” and the IC50 is 1.62 µM. Besides, the half-maximal inhibitory concentration (IC50) in experiment [2] is greater than 100 µM.
In the case of `CC1CC(C)CN(c2ccc(C(CC(=O)O)C(F)(F)F)cc2NC(=O)Nc2ccc(F)cc2F)C1` (stereo not shown) [i16, 3-[3-[3-(2,4-difluorophenyl)ureido]-4-(3,5-dimethylpiperidin-1-yl)-phenyl]-4,4,4-trifluorobutyric Acid], the “IDO1 inhibitory activity (in words)” value in experiment [1] is “no inhibitory activities”. The 50% inhibitory concentration (IC50) in experiment [1] and in experiment [2] was greater than 100 µM in each case.
Take `CC1CC(C)CN(c2ccc(C(CC(=O)O)C(F)(F)F)cc2NC(=O)Nc2ccc(Cl)cc2Cl)C1` (stereo not shown) [i17, 3-[3-[3-(2,4-dichlorophenyl)ureido]-4-(3,5-dimethylpiperidin-1-yl)-phenyl]-4,4,4-trifluorobutyric Acid]: in experiment [1], the “IDO1 inhibitory activity (in words)” value is “no inhibitory activities” and the IC50 was greater than 100 µM. In experiment [2], the concentration for half-maximal inhibition (IC50) is greater than 100 µM.
Take `CC1CC(C)CN(c2ccc(C(CC(=O)O)C(F)(F)F)cc2NC(=O)Nc2ccc(F)cc2)C1` (stereo not shown) [i18, 3-{4-(3,5-dimethylpiperidin-1-yl)-3-[3-(4-fluorophenyl)ureido]-phenyl}-4,4,4-trifluorobutyric Acid]: the results for the IC50 in experiment [1] and in experiment [2] were 5.48 µM and greater than 100 µM, respectively.
On to `CC1CC(C)CN(c2ccc(C(CC(=O)O)C(F)(F)F)cc2NC(=O)Nc2ccc(Br)cc2)C1` (stereo not shown) [i19, 3-[3-[3-(4-bromophenyl)ureido]-4-(3,5-dimethylpiperidin-1-yl)-phenyl]-4,4,4-trifluorobutyric Acid], for which the IC50 in experiment [1] was 4.08 µM; in experiment [2], greater than 100 µM.
Regarding `CCc1ccc(NC(=O)Nc2cc(C(CC(=O)O)C(F)(F)F)ccc2N2CC(C)CC(C)C2)cc1` (stereo not shown) [i20, 3-{4-(3,5-dimethylpiperidin-1-yl)-3-[3-(4-ethylphenyl)ureido]phenyl}-4,4,4-trifluorobutyric Acid], the figures for the IC50 in experiment [1] and in experiment [2] were 9.98 µM and greater than 100 µM, respectively.
Consider `CC1CC(C)CN(c2ccc(C(CC(=O)O)C(F)(F)F)cc2NC(=O)Nc2ccc(C(C)C)cc2)C1` (stereo not shown) [i21, 3-{4-(3,5-dimethylpiperidin-1-yl)-3-[3-(4-isopropylphenyl)ureido]-phenyl}-4,4,4-trifluorobutyric Acid], for which, in experiment [1], the “IDO1 inhibitory activity (in words)” value is recorded as “loss of activity” and the 50% inhibitory concentration (IC50) is greater than 100 µM. The concentration for half-maximal inhibition (IC50) in experiment [2] is greater than 100 µM.
In the case of `CC1CC(C)CN(c2ccc(C(CC(=O)O)C(F)(F)F)cc2NC(=O)Nc2ccc(OC(F)(F)F)cc2)C1` (stereo not shown) [i22, 3-{4-(3,5-dimethylpiperidin-1-yl)-3-[3-(4-trifluoromethoxyphenyl)-ureido]phenyl}-4,4,4-trifluorobutyric Acid], the concentration for half-maximal inhibition (IC50) in experiment [1] is 1.32 µM; in experiment [2] it was greater than 100 µM.
In the case of `CC1CC(C)CN(c2ccc(C(CC(=O)O)C(F)(F)F)cc2NC(=O)Nc2ccc(C(F)(F)F)cc2)C1` (stereo not shown) [i23, 3-{4-(3,5-dimethylpiperidin-1-yl)-3-[3-(4-trifluoromethylphenyl)-ureido]phenyl}-4,4,4-trifluorobutyric Acid], the half-inhibitory concentration (IC50) in experiment [1] is 0.415 µM; in experiment [2], greater than 100 µM.
